Experiments:
Sepia officinalis = experiment: Binding affinity to Sepia officinalis melanin assessed as fraction unbound at 2 uM after 2 hrs by high-throughput screening assay
[1] = Lipophilicity, log D of compound; details: octanol/water

With `Nc1nc2ccc(OC(F)(F)F)cc2s1` the Fu (Sepia officinalis) was 48%.
`CN(C)c1nc2ccc(Cl)cc2s1` gave a logD [1] of 2.04 and a Fu (Sepia officinalis) of 0.2%.
With `c1ccc2c(c1)oc1c(Nc3ccncc3)ncnc12` the logD [1] was 2.98 and the Fu (Sepia officinalis) was 0.1%.
For `Cc1ccccc1Nc1ncnc2c1oc1ccccc12`, the logD [1] was 3.77 and the Fu (Sepia officinalis) was 34%.
`COc1cc(N)c(Cl)cc1C(=O)CCC1CCNCC1` gave a logD [1] of 0.01 and a Fu (Sepia officinalis) of 34%.
In the case of `CCCCN1CCC(CCC(=O)c2cc(Cl)c(N)cc2OC)CC1`, the logD [1] was 1.91 and the Fu (Sepia officinalis) was 0.8%.

From ChEMBL document CHEMBL4266045, “Understanding Molecular Drivers of Melanin Binding To Support Rational Design of Small Molecule Ophthalmic Drugs” (J Med Chem, 2018)
